In patent US10947210B2 (priority 2015, dated 2021):

biological target: HCV RNA-dependent RNA polymerase (NS5B) (Hepatitis C virus genotype 1b (isolate BK) (HCV), UniProt P26663); test: RNA-Dependent RNA HCV NS5B (polymerase) Assay and IC50 Determination; type: biochemical; settings: purified HCV NS5B polymerase, polyA:U16 substrate, 32P-UTP incorporation; read-out: IC50
Procedure: RNA-Dependent RNA HCV NS5B (polymerase) Assay and IC50 Determination.
The reaction mixtures consisted of 50 mM Hepes-KOH, pH 7.5, 5 mM MgCl2, 5 mM DTT, 2% glycerol, 0.01% Triton® X-100, 0.5 uM polyA:U16 substrate, purified HCV RNA-dependent RNA polymerase, 10 μM UTP, and ^32P-UTP (Perkin Elmer). The reaction mixtures incubated at 30° C. for 60 minutes, and then filtered through Zeta probe membrane (BioRad). The filter was washed with 5×SSC (75 mM sodium citrate, pH 7 and 750 mM NaCl), and the radiolabeled RNA products were quantitated by microbeta (Perkin Elmer). For IC50 determination, different concentrations of inhibitors were added to the polymerase reaction mixtures, and incubated at 37° C. for 60 minutes. IC50 values were determined using GraFit (Erithaus software).
Table 1 presents IC50 data obtained using the biochemical assay to test representative compounds. Data are presented as follows: “+++” means <0.1 μM; “++” means ≥0.1 μM but <1.0 μM; “+” means ≥1.0 μM.

Sequence of HCV RNA-dependent RNA polymerase (NS5B) (P26663 2420-3010): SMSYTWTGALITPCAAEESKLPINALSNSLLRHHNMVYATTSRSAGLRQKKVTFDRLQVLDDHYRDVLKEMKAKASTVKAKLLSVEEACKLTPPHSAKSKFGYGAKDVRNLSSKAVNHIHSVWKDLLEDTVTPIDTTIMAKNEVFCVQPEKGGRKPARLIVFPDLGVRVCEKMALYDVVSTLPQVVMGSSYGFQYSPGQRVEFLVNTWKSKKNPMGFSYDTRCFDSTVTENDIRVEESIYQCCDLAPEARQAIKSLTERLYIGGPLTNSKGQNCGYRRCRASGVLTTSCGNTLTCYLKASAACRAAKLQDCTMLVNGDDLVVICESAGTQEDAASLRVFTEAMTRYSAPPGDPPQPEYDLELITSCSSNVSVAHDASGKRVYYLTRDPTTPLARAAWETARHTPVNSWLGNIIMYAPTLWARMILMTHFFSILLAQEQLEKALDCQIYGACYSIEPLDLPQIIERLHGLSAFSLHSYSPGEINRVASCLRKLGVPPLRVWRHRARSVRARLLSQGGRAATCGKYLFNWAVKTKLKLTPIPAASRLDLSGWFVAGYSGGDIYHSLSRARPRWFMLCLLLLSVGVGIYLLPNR

Structure (SMILES)	IC50 [nM]
CNC(=O)c1c(-c2ccc(F)cc2)oc2cc(N(CCOCCOCCOC(C)(C)C(=O)O)S(C)(=O)=O)c(C3CC3)cc12 [Compound 26-7B, 2-{2-[2-(2-{[5-Cyclopropyl-2-(4-fluoro-phenyl)-3-methylcarbamoyl-benzofuran-6-yl]-methanesulfonyl-amino}-ethoxy)-ethoxy]-ethoxy}-2-methyl-propionic Acid]	100 to 1000
CNC(=O)c1c(-c2ccc(F)cc2)oc2cc(N(CCCCCOCCCCC(=O)OC(C)(C)C)S(C)(=O)=O)c(C3CC3)cc12 [Compound 28-7A, 5-(5-{[5-Cyclopropyl-2-(4-fluoro-phenyl)-3-methylcarbamoyl-benzofuran-6-yl]-methanesulfonyl-amino}-pentyloxy)-pentanoic Acid Tert-butyl Ester]	> 1000
CNC(=O)c1c(-c2ccc(F)cc2)oc2cc(N(CCOCCOCc3ccc(C(=O)OCc4ccccc4)cc3)S(C)(=O)=O)c(C3CC3)cc12 [Compound 06-8B7, 4-[2-(2-{[5-Cyclopropyl-2-(4-fluoro-phenyl)-3-methylcarbamoyl-benzofuran-6-yl]-methanesulfonyl-amino}-ethoxy)-ethoxymethyl]-benzoic Acid Benzyl Ester]	100 to 1000
CNC(=O)c1c(-c2ccc(F)cc2)oc2cc(N(CCCCCOCc3ccc(C(=O)OC)cc3)S(C)(=O)=O)c(C3CC3)cc12 [Compound 16-6, 4-(5-{[5-Cyclopropyl-2-(4-fluoro-phenyl)-3-methylcarbamoyl-benzofuran-6-yl]-methanesulfonyl-amino}-pentyloxymethyl)-benzoic Acid Methyl Ester]	> 1000
CNC(=O)c1c(-c2ccc(F)cc2)oc2cc(N(CC(=O)NC3(C(=O)NCc4cccc(C(=O)C=C(O)C(=O)O)c4)CC3)S(C)(=O)=O)c(C3CC3)cc12 [Compound 09-14D, 4-[3-({[1-(2-{[5-Cyclopropyl-2-(4-fluoro-phenyl)-3-methylcarbamoyl-benzofuran-6-yl]-methanesulfonyl-amino}-acetylamino)-cyclopropanecarbonyl]-amino}-methyl)-phenyl]-2-hydroxy-4-oxo-but-2-enoic Acid]	> 1000
CNC(=O)c1c(-c2ccc(F)cc2)oc2cc(N(CCOCCOCc3ccc(C(=O)OCSC)cc3)S(C)(=O)=O)c(C3CC3)cc12 [Compound 06-8B6, 4-[2-(2-{[5-Cyclopropyl-2-(4-fluoro-phenyl)-3-methylcarbamoyl-benzofuran-6-yl]-methanesulfonyl-amino}-ethoxy)-ethoxymethyl]-benzoic Acid Methylsulfanylmethyl Ester]	100 to 1000
CNC(=O)c1c(-c2ccc(F)cc2)oc2cc(N(CCOCCOCc3ccc(OC)c(C(=O)OC)c3)S(C)(=O)=O)c(C3CC3)cc12 [Compound 30-11, 5-[2-(2-{[5-Cyclopropyl-2-(4-fluoro-phenyl)-3-methylcarbamoyl-benzofuran-6-yl]-methanesulfonyl-amino}-ethoxy)-ethoxymethyl]-2-methoxy-benzoic acid methyl ester]	> 1000
CNC(=O)c1c(-c2ccc(F)cc2)oc2cc(N(CCOCCOCCc3ccccc3C(=O)OC)S(C)(=O)=O)c(C3CC3)cc12 [Compound 11-5A, 2-{2-[2-(2-{[5-Cyclopropyl-2-(4-fluoro-phenyl)-3-methylcarbamoyl-benzofuran-6-yl]-methanesulfonyl-amino}-ethoxy)-ethoxy]-ethyl}-benzoic Acid Methyl Ester]	100 to 1000
CNC(=O)c1c(-c2ccc(F)cc2)oc2cc(N(CCOCCOCCOc3ccccc3C(=O)O)S(C)(=O)=O)c(C3CC3)cc12 [Compound 14-7A, 2-{2-[2-(2-{[5-Cyclopropyl-2-(4-fluoro-phenyl)-3-methylcarbamoyl-benzofuran-6-yl]-methanesulfonyl-amino}-ethoxy)-ethoxy]-ethoxy}-benzoic Acid]	< 100
CNC(=O)c1c(-c2ccc(F)cc2)oc2cc(N(CCOCCOCc3ccc(C(=O)O)c(N)c3)S(C)(=O)=O)c(C3CC3)cc12 [Compound 29-10, 2-Amino-4-[2-(2-{[5-cyclopropyl-2-(4-fluoro-phenyl)-3-methylcarbamoyl-benzofuran-6-yl]-methanesulfonyl-amino}-ethoxy)-ethoxymethyl]-benzoic Acid]	100 to 1000
CCOC(=O)C(OCCOCCOCCN(c1cc2oc(-c3ccc(F)cc3)c(C(=O)NC)c2cc1C1CC1)S(C)(=O)=O)c1ccccc1 (centres unmarked) [Compound 25-4, {2-[2-(2-{[5-Cyclopropyl-2-(4-fluoro-phenyl)-3-methylcarbamoyl-benzofuran-6-yl]-methanesulfonyl-amino}-ethoxy)-ethoxy]-ethoxy}-phenyl-acetic Acid Ethyl Ester]	> 1000
CNC(=O)c1c(-c2ccc(F)cc2)oc2cc(N(CCOCCOCCOCCOCc3ccc(C(=O)/C=C(\O)C(=O)O)cc3)S(C)(=O)=O)c(C3CC3)cc12 [Compound 02-10H, 4-[4-(2-{2-[2-(2-{[5-Cyclopropyl-2-(4-fluoro-phenyl)-3-methylcarbamoyl-benzofuran-6-yl]-methanesulfonyl-amino}-ethoxy)-ethoxy]-ethoxy}-ethoxymethyl)-phenyl]-2-hydroxy-4-oxo-but-2-enoic Acid]	> 1000
CNC(=O)c1c(-c2ccc(F)cc2)oc2cc(N(CCOCCOCCOCC(=O)OC(C)(C)C)S(C)(=O)=O)c(C3CC3)cc12 [Compound 23-5A, {2-[2-(2-{[5-Cyclopropyl-2-(4-fluoro-phenyl)-3-methylcarbamoyl-benzofuran-6-yl]-methanesulfonyl-amino}-ethoxy)-ethoxy]-ethoxy}-acetic Acid Tert-butyl Ester]	> 1000
CNC(=O)c1c(-c2ccc(F)cc2)oc2cc(N(CCOCCOCc3ccc(C(=O)OC)c(N)c3)S(C)(=O)=O)c(C3CC3)cc12 [Compound 29-9, 2-Amino-4-[2-(2-{[5-cyclopropyl-2-(4-fluoro-phenyl)-3-methylcarbamoyl-benzofuran-6-yl]-methanesulfonyl-amino}-ethoxy)-ethoxymethyl]-benzoic Acid Methyl Ester]	100 to 1000
CNC(=O)c1c(-c2ccc(F)cc2)oc2cc(N(CCOCCOCCCc3cccc(C(=O)CC(=O)C(=O)O)c3)S(C)(=O)=O)c(C3CC3)cc12 [Compound 30-8, 4-(3-{3-[2-(2-{[5-Cyclopropyl-2-(4-fluoro-phenyl)-3-methylcarbamoyl-benzofuran-6-yl]-methanesulfonyl-amino}-ethoxy)-ethoxy]-propyl}-phenyl)-2,4-dioxo-butyric acid]	> 1000
CNC(=O)c1c(-c2ccc(F)cc2)oc2cc(N(CCOCCOCCOCC(C)=O)S(C)(=O)=O)c(C3CC3)cc12 [Compound 30-1, 5-Cyclopropyl-2-(4-fluoro-phenyl)-6-[methanesulfonyl-(2-{2-[2-(2-oxo-propoxy)-ethoxy]-ethoxy}-ethyl)-amino]-benzofuran-3-carboxylic acid methylamide]	> 1000
CNC(=O)c1c(-c2ccc(F)cc2)oc2cc(N(CCOCCOCCc3cccc(C(=O)O)c3)S(C)(=O)=O)c(C3CC3)cc12 [Compound 11-6B, 3-{2-[2-(2-{[5-Cyclopropyl-2-(4-fluoro-phenyl)-3-methylcarbamoyl-benzofuran-6-yl]-methanesulfonyl-amino}-ethoxy)-ethoxy]-ethyl}-benzoic Acid]	< 100
CNC(=O)c1c(-c2ccc(F)cc2)oc2cc(N(CCCCOCCc3ccc(C(=O)OC)cc3)S(C)(=O)=O)c(C3CC3)cc12 [Compound 13-7C, 4-[2-(4-{[5-Cyclopropyl-2-(4-fluoro-phenyl)-3-methylcarbamoyl-benzofuran-6-yl]-methanesulfonyl-amino}-butoxy)-ethyl]-benzoic Acid Methyl Ester]	100 to 1000
CNC(=O)c1c(-c2ccc(F)cc2)oc2cc(N(CCOCCOCCCc3cccc(C(=O)O)c3)S(C)(=O)=O)c(C3CC3)cc12 [Compound 12-7B, 3-{3-[2-(2-{[5-Cyclopropyl-2-(4-fluoro-phenyl)-3-methylcarbamoyl-benzofuran-6-yl]-methanesulfonyl-amino}-ethoxy)-ethoxy]-propyl}-benzoic Acid]	< 100
CCOC(=O)c1cc(COCCOCCN(c2cc3oc(-c4ccc(F)cc4)c(C(=O)NC)c3cc2C2CC2)S(C)(=O)=O)ccc1F [Compound 30-14, 5-[2-(2-{[5-Cyclopropyl-2-(4-fluoro-phenyl)-3-methylcarbamoyl-benzofuran-6-yl]-methanesulfonyl-amino}-ethoxy)-ethoxymethyl]-2-fluoro-benzoic acid ethyl ester]	> 1000
CNC(=O)c1c(-c2ccc(F)cc2)oc2cc(N(CCOCCOCc3ccc(C(=O)O)cc3C)S(C)(=O)=O)c(C3CC3)cc12 [Compound 18-10B, 4-[2-(2-{[5-Cyclopropyl-2-(4-fluoro-phenyl)-3-methylcarbamoyl-benzofuran-6-yl]-methanesulfonyl-amino}-ethoxy)-ethoxymethyl]-3-methyl-benzoic Acid]	< 100
CNC(=O)c1c(-c2ccc(F)cc2)oc2cc(N(CCOCCOCc3ccc(C(C)=O)cc3)S(C)(=O)=O)c(C3CC3)cc12 [Compound 02-8F, 6-({2-[2-(4-Acetyl-benzyloxy)-ethoxy]-ethyl}-methanesulfonyl-amino)-5-cyclopropyl-2-(4-fluoro-phenyl)-benzofuran-3-carboxylic Acid Methylamide]	> 1000
CNC(=O)c1c(-c2ccc(F)cc2)oc2cc(N(CCOCCOCCOCc3ccc(C(=O)O)cc3)S(C)(=O)=O)c(C3CC3)cc12 [Compound 06-7E, 4-{2-[2-(2-{[5-Cyclopropyl-2-(4-fluoro-phenyl)-3-methylcarbamoyl-benzofuran-6-yl]-methanesulfonyl-amino}-ethoxy)-ethoxy]-ethoxymethyl}-benzoic Acid]	100 to 1000
